Values quoted from earlier work as cited in patent EP0731703B1, “LIPOSOMAL FORMULATIONS CONTAINING VIDARABINE OR ITS DERIVATIVES” (INSTITUTO NACIONAL DE ENGENHARIA E TECNOLOGIA …, priority 1993, dated 1995).

Conditions: literature (Schabel 1968; LePage et al. 1972)

aqueous solubility | SMILES
poor aqueous solubility | Nc1ncnc2c1ncn2[C@@H]1O[C@H](CO)[C@@H](O)[C@@H]1O [ARA-A, 9-β-D-arabinofuranosyladenine]
water-soluble | Nc1ncnc2c1ncn2[C@@H]1O[C@H](COP(=O)(O)O)[C@@H](O)[C@@H]1O [ARA-AMP, 9-β-D--arabinofuranosyladenine monophosphate]
